Data set [1] has as its target T1, mutant LRRK2 (G2019S) (Homo sapiens, UniProt Q5S007, G2019S).
T1 construct: DNA tag for qPCR detection (not a peptide; the protein part that carries it is not described); made in house; host or cells: HEK 293 cells (the same paragraph also describes T7 phage grown in E. coli BL21)
The data set is described as follows: Inhibitory activity against LRRK2: competition binding to ligand-affinity beads, DNA-tagged kinase quantitated by qPCR. Conditions: 100 nM compound; % of ctrl; read-out: Remaining kinase activity(%) at 100 nM LRRK2(G2019Smutant). Put shortly:
(§1)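 Human LRRK2 H970–E2527, wild type or G2019S, was expressed as DNA-tagged kinase (T7 phage in E. coli or HEK293) and competed for 1 h against a biotinylated ligand on streptavidin beads. Bound kinase was eluted with 0.5 µM free ligand and quantified by qPCR. Values are % of control at 100 nM (both forms) and at 10 and 50 nM (wild type).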
On the technique in general: Real-time PCR tracks product formation cycle by cycle.

The target in data set [2] is T2, wild-type LRRK2 (Homo sapiens, UniProt Q5S007).
T2 construct: DNA tag for qPCR detection (not a peptide; the protein part that carries it is not described); made in house; host or cells: HEK 293 cells (the same paragraph also describes T7 phage grown in E. coli BL21)
Described as above. Conditions: % of ctrl. Put shortly: as §1

The nature of data set [3]: Blood-brain barrier (BBB) penetration, LC-MS/MS of plasma and brain tissue after oral administration. Conditions: oral 10 mg/kg, three hours after administration. The data set is classed as in vivo. As for the experimental part:
Test substances were each orally administered at a dose of 10 mg/kg. Three hours later, the animals were sacrificed and blood samples were immediately taken from the heart and centrifuged to obtain plasma samples. In order to remove the blood remaining in the body, 20 ml of saline containing 10 U/ml heparin were perfused through the heart, after which the brain was excised. The brain was homogenized together with three volumes of a PBS buffer. For quantitative analysis in the prepared plasma and brain tissue, advantage was taken of LC-MS/MS (Agilent, Santa Clara, Calif., USA). Separation in LC was conducted with a mobile phase consisting of 80% of acetonitrile and 20% of water containing 0.1% formic acid. For each substance, the eluting buffer was run for a total of 3 minutes at a flow rate of 0.3 ml/min. Each substance was quantitated using a multiple reaction monitoring method (for comparative compounds 4 and 5, the oral Parkinson's disease drugs DNL-151 and DNL-201 were used as LRRK2 protein inhibitors, respectively).

The results in this text go back to US20240254103A9, “NOVEL PYRIMIDINE DERIVATIVE, AND COMPOSITION FOR PREVENTING OR TREATING NEURODEGENERATIVE DISEASES AND CANCER, COMPRISING SAME” (WHAN IN PHARMACEUTICAL CO., LTD., priority 2020, published 2024).

T2 sequence (Q5S007 970-2527): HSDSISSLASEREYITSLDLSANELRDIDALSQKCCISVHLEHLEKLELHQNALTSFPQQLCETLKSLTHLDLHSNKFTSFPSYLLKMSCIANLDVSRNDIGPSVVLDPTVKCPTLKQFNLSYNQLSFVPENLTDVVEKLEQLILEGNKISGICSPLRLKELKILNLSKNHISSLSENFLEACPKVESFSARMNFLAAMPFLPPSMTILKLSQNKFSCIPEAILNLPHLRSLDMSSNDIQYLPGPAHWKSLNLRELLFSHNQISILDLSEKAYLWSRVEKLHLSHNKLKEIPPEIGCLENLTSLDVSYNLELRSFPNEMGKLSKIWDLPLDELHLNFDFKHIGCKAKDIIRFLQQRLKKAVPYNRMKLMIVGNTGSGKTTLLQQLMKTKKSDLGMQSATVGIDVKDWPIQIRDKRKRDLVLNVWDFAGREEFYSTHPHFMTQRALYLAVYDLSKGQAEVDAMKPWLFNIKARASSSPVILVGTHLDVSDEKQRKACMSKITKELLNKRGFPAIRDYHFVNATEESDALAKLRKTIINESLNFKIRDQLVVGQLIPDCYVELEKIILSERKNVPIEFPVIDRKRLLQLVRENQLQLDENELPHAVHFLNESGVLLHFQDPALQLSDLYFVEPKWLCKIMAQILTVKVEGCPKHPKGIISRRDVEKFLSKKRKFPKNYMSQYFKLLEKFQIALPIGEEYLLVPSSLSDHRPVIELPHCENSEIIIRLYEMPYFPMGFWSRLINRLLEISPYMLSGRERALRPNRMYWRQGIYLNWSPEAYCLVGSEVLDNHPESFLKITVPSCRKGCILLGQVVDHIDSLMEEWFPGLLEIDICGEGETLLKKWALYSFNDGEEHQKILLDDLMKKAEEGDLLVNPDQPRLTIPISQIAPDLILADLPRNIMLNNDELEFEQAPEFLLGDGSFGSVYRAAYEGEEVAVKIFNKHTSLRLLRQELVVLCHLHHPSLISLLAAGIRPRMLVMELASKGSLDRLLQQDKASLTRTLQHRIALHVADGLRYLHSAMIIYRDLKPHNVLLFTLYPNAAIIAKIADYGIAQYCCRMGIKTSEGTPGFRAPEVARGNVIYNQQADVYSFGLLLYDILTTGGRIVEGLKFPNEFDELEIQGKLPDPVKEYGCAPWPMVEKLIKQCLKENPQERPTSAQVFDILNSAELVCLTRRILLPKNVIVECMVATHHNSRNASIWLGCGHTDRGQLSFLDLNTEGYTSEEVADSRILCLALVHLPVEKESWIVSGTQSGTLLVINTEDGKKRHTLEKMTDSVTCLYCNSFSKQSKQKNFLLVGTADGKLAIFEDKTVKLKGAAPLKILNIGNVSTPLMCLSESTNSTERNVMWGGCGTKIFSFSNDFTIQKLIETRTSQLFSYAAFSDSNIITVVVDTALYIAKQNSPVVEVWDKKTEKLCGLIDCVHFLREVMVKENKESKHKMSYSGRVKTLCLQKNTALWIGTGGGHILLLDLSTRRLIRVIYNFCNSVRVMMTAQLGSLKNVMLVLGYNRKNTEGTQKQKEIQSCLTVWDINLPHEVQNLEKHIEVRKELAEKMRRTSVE
T1 sequence (Q5S007 970-2527 G2019S): as the sequence (Q5S007 970-2527) above, with G1050S counted along it

Take `COc1cc(C(=O)N2CCOCC2)ccc1Nc1ncc(Cl)c(-c2cnn(C(C)C)c2)n1` [Compound 37, (4-((5-chloro-4-(1-isopropyl-1H-pyrazol-4-yl)pyrimidin-2-yl)amino)-3-methoxyphenyl)(morpholino)methanone]: the remaining binding at 0.1 µM in data set [1] was less than 10%; in data set [2] (100 nM compound, read-out: Remaining kinase activity(%) at 100 nM LRRK2(WT)), less than 10%. Also, the remaining binding at 0.01 µM in data set [2] (10 nM compound, read-out: LRRK2(WT) Remaining kinase activity(%) at 10 nM) was less than 50%. Further, the remaining binding at 0.05 µM in data set [2] (50 nM compound, read-out: LRRK2(WT) Remaining kinase activity(%) at 50 nM) was less than 30%. Besides, the “effective concentration in the brain tissue, fold higher compared to comparative compound-4 (DNL-151)” value in data set [3] is reported as 1.64 fold. In addition, the “effective concentration in the brain tissue, fold higher compared to comparative compound-5 (DNL-201)” value in data set [3] turned out to be 2.77 fold.
